Laboratory results: patent US8889192B2, “Magnetic nanomedicine for inhibiting/treating human prostate cancer” (priority 2011, dated 2014)

Assays:
[1] = tested on: human prostate cancer cells PC3; assay: Growth of PC3 cells, XTT cell counting; assay type: cell-based; conditions: 10 μM, 48 hours, no magnetic field
Protocol: Cell cultivation: Place 150 μL of a mixture liquid containing 10000 human prostate cancer cells PC3 into every well of a 96-well culture plate. […] Agent addition: 24 hours later, separately mix […] magnetic nanocomposite (600 μg/mL), Taxol, and […]/Taxol magnetic nanomedicine with a RPMI1640 medium to form mixed solutions. […] Cell counting: […]

α-tubulin = assay: Content of α-tubulin in CWR22R cells, Western method; conditions: 10 μM, 24 hours, no magnetic field
tubulin protein [2] = assay: Stability analysis: residual activity by tubulin protein assay after storage; conditions: stored at 25° C. for 14 days
tubulin protein [3] = tested on: tubulin protein
[4] = tested on: human prostate cancer cells CWR22R; assay: Growth of CWR22R cells, XTT cell counting; assay type: cell-based; conditions: 10 μM, 48 hours, no magnetic field
Protocol: Cell cultivation: Place 150 μL of a mixture liquid containing 10000 human prostate cancer cells CW[…] into every well of a 96-well culture plate. […] Agent addition: 24 hours later, separately mix […] magnetic nanocomposite (600 μg/mL), Taxol, and […]/Taxol magnetic nanomedicine with a RPMI1640 medium to form mixed solutions. […] Cell counting: Remove RPMI1640 and add 120 μL of an XTT reaction liquid to the wells.

For `CC(=O)O[C@H]1C(=O)[C@@]2(C)[C@H]([C@H](OC(=O)c3ccccc3)[C@]3(O)C[C@H](OC(=O)[C@H](O)[C@@H](NC(=O)c4ccccc4)c4ccccc4)C(C)=C1C3(C)C)[C@]1(OC(C)=O)CO[C@@H]1C[C@@H]2O` [Taxol], which half-life (physchem) is on record?
The half-life was 1140 min.

What about the PC3 growth-inhibition ratio [1] of the same compound?
The PC3 growth-inhibition ratio was 25%.

What about the α-tubulin inhibition ratio (α-tubulin) of the same compound?
Its α-tubulin inhibition ratio is 52%.

And the activity after storage (tubulin protein [2])?
The activity after storage was “has lost its activity”.

What about the half life (tubulin protein [3]) of the same compound?
Its half life is 32 h.

What about the CWR22R growth-inhibition ratio [4] of the same compound?
The CWR22R growth-inhibition ratio was 41%.
